Data taken from PubChem BioAssay (NCI).
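How tested: cells in 96-well plates exposed to compound for 48 hours at five concentrations. TGI: total growth inhibition.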

What was measured:
Test in all cases: growth of human tumour cells (NCI), 48 h
[1] = tested on: SF-539 CNS
[2] = tested on: SK-MEL-2 melanoma
[3] = tested on: NCI-H460 lung
[4] = tested on: NCI-H226 lung
[5] = tested on: SK-MEL-5 melanoma
[6] = tested on: MDA-MB-231 breast
[7] = tested on: HT29 colon
[8] = tested on: MALME-3M melanoma
[9] = tested on: HCC-2998 colon
[10] = tested on: HOP-92 NSCLC
[11] = tested on: UACC-257 melanoma
[12] = tested on: OVCAR-5 ovarian
[13] = tested on: EKVX NSCLC
[14] = tested on: SF-268 CNS
[15] = tested on: U251 CNS
[16] = tested on: CAKI-1 renal
[17] = tested on: SNB-75 CNS
[18] = tested on: HOP-62 NSCLC
[19] = tested on: HL-60(TB) leukemia
[20] = tested on: A498 renal
[21] = tested on: ACHN renal
[22] = tested on: MDA-N
[23] = tested on: SW-620 colon
[24] = tested on: M14 melanoma
[25] = tested on: SN12C renal
[26] = tested on: SF-295 CNS
[27] = tested on: UO-31 renal
[28] = tested on: HCT-15 colon
[29] = tested on: A549 NSCLC
[30] = tested on: K-562 leukemia
[31] = tested on: MCF7 breast
[32] = tested on: SR leukemia
[33] = tested on: DU-145 prostate
[34] = tested on: HS 578T breast
[35] = tested on: SNB-19 CNS
[36] = tested on: OVCAR-3 ovarian
[37] = tested on: CCRF-CEM leukemia
[38] = tested on: NCI/ADR-RES ovarian
[39] = tested on: 786-0 renal
[40] = tested on: NCI-H23 lung
[41] = tested on: COLO 205 colon
[42] = tested on: SK-OV-3 ovarian
[43] = tested on: UACC-62 melanoma
[44] = tested on: MDA-MB-435
[45] = tested on: NCI-H522 lung
[46] = tested on: KM12 colon
[47] = tested on: RPMI-8226 leukemia
[48] = tested on: IGROV1 ovarian
[49] = tested on: MOLT-4 leukemia
[50] = tested on: SK-MEL-28 melanoma
[51] = tested on: LOX IMVI melanoma
[52] = tested on: PC-3 prostate
[53] = tested on: RXF 393 renal
[54] = tested on: OVCAR-8 ovarian
[55] = tested on: TK-10 renal
[56] = tested on: HCT-116 colon
[57] = tested on: OVCAR-4 ovarian
[58] = tested on: T-47D breast

## Cc1nc2ccc(Cl)cc2c(Cl)c1CCCl
[1]
  TGI: > 100 µM
[2]
  TGI: > 100 µM
[3]
  TGI: > 100 µM
[4]
  TGI: > 100 µM
[5]
  TGI: > 100 µM
[6]
  TGI: > 100 µM
[7]
  TGI: > 100 µM
[8]
  TGI: > 100 µM
[9]
  TGI: > 100 µM
[10]
  TGI: 94.2 µM
[11]
  TGI: > 100 µM
[12]
  TGI: > 100 µM
[13]
  TGI: > 100 µM
[14]
  TGI: > 100 µM
[15]
  TGI: > 100 µM
[16]
  TGI: > 100 µM
[17]
  TGI: > 100 µM
[18]
  TGI: > 100 µM
[19]
  TGI: > 100 µM
[20]
  TGI: > 100 µM
[21]
  TGI: > 100 µM
[22]
  TGI: 40.9 µM
[23]
  TGI: > 100 µM
[24]
  TGI: > 100 µM
[25]
  TGI: > 100 µM
[26]
  TGI: > 100 µM
[27]
  TGI: > 100 µM
[28]
  TGI: > 100 µM
[29]
  TGI: > 100 µM
[30]
  TGI: > 100 µM
[31]
  TGI: 99.2 µM
[32]
  TGI: > 100 µM
[33]
  TGI: > 100 µM
[34]
  TGI: > 100 µM
[35]
  TGI: > 100 µM
[36]
  TGI: > 100 µM
[37]
  TGI: > 100 µM
[38]
  TGI: > 100 µM
[39]
  TGI: > 100 µM
[40]
  TGI: > 100 µM
[41]
  TGI: > 100 µM
[42]
  TGI: > 100 µM
[43]
  TGI: > 100 µM
[44]
  TGI: 31.2 µM
[45]
  TGI: > 100 µM
[46]
  TGI: > 100 µM
[47]
  TGI: > 100 µM
[48]
  TGI: > 100 µM
[49]
  TGI: > 100 µM
[50]
  TGI: > 100 µM
[51]
  TGI: > 100 µM
[52]
  TGI: > 100 µM
[53]
  TGI: > 100 µM
[54]
  TGI: > 100 µM
[55]
  TGI: > 100 µM
[56]
  TGI: > 100 µM

## N#CCCC1(CCC#N)CCCCCCC(CCC#N)(CCC#N)C(=O)C1=O
[1]
  TGI: > 100 µM
[2]
  TGI: > 100 µM
[3]
  TGI: > 100 µM
[5]
  TGI: > 100 µM
[7]
  TGI: > 100 µM
[8]
  TGI: > 100 µM
[9]
  TGI: > 100 µM
[10]
  TGI: > 100 µM
[11]
  TGI: > 100 µM
[12]
  TGI: > 100 µM
[13]
  TGI: > 100 µM
[14]
  TGI: > 100 µM
[57]
  TGI: > 100 µM
[15]
  TGI: > 100 µM
[16]
  TGI: > 100 µM
[17]
  TGI: > 100 µM
[18]
  TGI: > 100 µM
[20]
  TGI: > 100 µM
[58]
  TGI: > 100 µM
[21]
  TGI: > 100 µM
[22]
  TGI: > 100 µM
[23]
  TGI: > 100 µM
[24]
  TGI: > 100 µM
[25]
  TGI: > 100 µM
[26]
  TGI: > 100 µM
[27]
  TGI: 20.8 µM
[28]
  TGI: > 100 µM
[29]
  TGI: > 100 µM
[30]
  TGI: > 100 µM
[31]
  TGI: > 100 µM
[32]
  TGI: > 100 µM
[33]
  TGI: > 100 µM
[34]
  TGI: > 100 µM
[35]
  TGI: > 100 µM
[36]
  TGI: > 100 µM
[38]
  TGI: > 100 µM
[39]
  TGI: > 100 µM
[40]
  TGI: > 100 µM
[41]
  TGI: > 100 µM
[42]
  TGI: > 100 µM
[43]
  TGI: > 100 µM
[44]
  TGI: > 100 µM
[45]
  TGI: > 100 µM
[46]
  TGI: > 100 µM
[48]
  TGI: > 100 µM
[50]
  TGI: > 100 µM
[51]
  TGI: > 100 µM
[52]
  TGI: > 100 µM
[53]
  TGI: > 100 µM
[54]
  TGI: > 100 µM
[55]
  TGI: > 100 µM
[56]
  TGI: > 100 µM
